Values after ≈ are worked out from the molar mass of the structure shown. Read-outs that look alike come from different tables or passages of the source.
Assay: Phase solubility studies of Compound I with cyclodextrins (excess compound, 7 days, 37° C., HPLC)
Type: physicochemical
Details: for solubility at 7 days: 37 °C, thermodynamic from solid
Protocol: At the time of a complex formation, compound I, practically insoluble in water (<0.6 μg/ml, MW: 485), solubilizes dramatically. The increase in the solubility of compound I is thus proof of a complex formation between Compound I and the CD. Complex formation and achievement of the equilibrium is found at 20% after 1 day, 40% after 4 days, and 100% after 7 days. The solubility diagrams (FIG. 1) are carried out by adding an excess of compound I to the CD solutions of increasing concentration. After 7 days of stirring in thermostatically controlled baths at 37° C., these solutions are filtered and the solubilized compound I quantity is dosed by HPLC. The βCD and the γCD as well as their synthetic derivatives have allowed complexes with compound I to be formed. The β-CD and the HPβCD come from ROQUETTE (France), the RMβCD and the γCD have been supplied by Wacker (Germany).
The flasks containing compound I and the cyclodextrins are placed being stirred in thermostatically controlled baths at 37° C. for 7 days, so that the complexation balance is reached. After this time, the suspensions are filtered with the help of a milli-pore filter 0.22 μm in PVDF and the filtrate is dissolved in DMSO in the mobile phase to obtain concentration samples situating themselves on the calibrating line. They are then dosed thanks to the validated HPLC method, described below.
Mobile phase: mixture of phosphate buffer 0.05 M to pH=3 and methanol (30/70, v/v). Gas is extracted by an ultrasound passage for 15 minutes, output: 1 ml/min, λ of U.V. detection: 265 nm, Working temperature: 30° C., Injection volume: 20 μl.
The results of the HPLC dosages of Compound I are reproduced in the tables below (Tables 1 to 4) for each cyclodextrin.

O=C1NC(=O)C(c2ccc(-c3ccccc3)cc2)(N2CCN(c3ccc([N+](=O)[O-])cc3)CC2)C(=O)N1 [Compound I, 5-Biphenyl-4-yl-5-[4-(4-nitro-phenyl)-piperazin-1-yl]pyrimidine-2,4,6-trione]
solubility at 7 days (HPβCD solution, aqueous with cosolvent or surfactant or cyclodextrin, HPβCD, maximum concentration used 200 mM, read-out: Maximum solubility): 4960 µg/mL (≈ 10200 µM)
Concentration of Compound I (solubility) (RMβCD 10 mM, 37° C., 7 days): 120.6 µg/mL
solubility at 7 days (RMβCD solution, aqueous with cosolvent or surfactant or cyclodextrin, RMβCD, maximum concentration used 200 mM, read-out: Maximum solubility): 11900 µg/mL (≈ 24600 µM)
Complex formation and achievement of the equilibrium (after 1 day): 20%
Complex formation and achievement of the equilibrium (after 4 days): 40%
Complex formation and achievement of the equilibrium (after 7 days): 100%
K1:1 (stability constant) (complex with HP-βCD): 12575 M⁻¹
K1:2 (stability constant) (complex with HP-βCD): 14.4 M⁻¹
K1:1 (stability constant) (complex with RMβCD): 27595 M⁻¹
K1:2 (stability constant) (complex with RMβCD): 22.88 M⁻¹
K1:1 (stability constant) (complex with βCD): 2092 M⁻¹
K1:1 (stability constant) (complex with γCD): 346 M⁻¹
solubility at 7 days (cyclodextrin solution, aqueous with cosolvent or surfactant or cyclodextrin, HPβCD 10 mM, 37° C., 7 days, read-out: Concentration of Compound I (solubility)): 188 µg/mL (≈ 387 µM)
solubility at 7 days (cyclodextrin solution, aqueous with cosolvent or surfactant or cyclodextrin, HPβCD 25 mM, 37° C., 7 days, read-out: Concentration of Compound I (solubility)): 213 µg/mL (≈ 440 µM)
solubility at 7 days (cyclodextrin solution, aqueous with cosolvent or surfactant or cyclodextrin, HPβCD 50 mM, 37° C., 7 days, read-out: Concentration of Compound I (solubility)): 236 µg/mL (≈ 486 µM)
solubility at 7 days (cyclodextrin solution, aqueous with cosolvent or surfactant or cyclodextrin, HPβCD 75 mM, 37° C., 7 days, read-out: Concentration of Compound I (solubility)): 1130 µg/mL (≈ 2330 µM)
solubility at 7 days (cyclodextrin solution, aqueous with cosolvent or surfactant or cyclodextrin, HPβCD 100 mM, 37° C., 7 days, read-out: Concentration of Compound I (solubility)): 1660 µg/mL (≈ 3430 µM)
solubility at 7 days (cyclodextrin solution, aqueous with cosolvent or surfactant or cyclodextrin, HPβCD 150 mM, 37° C., 7 days, read-out: Concentration of Compound I (solubility)): 3110 µg/mL (≈ 6400 µM)
solubility at 7 days (cyclodextrin solution, aqueous with cosolvent or surfactant or cyclodextrin, HPβCD 200 mM, 37° C., 7 days, read-out: Concentration of Compound I (solubility)): 4960 µg/mL (≈ 10200 µM)
solubility at 7 days (cyclodextrin solution, aqueous with cosolvent or surfactant or cyclodextrin, RMβCD 25 mM, 37° C., 7 days, read-out: Concentration of Compound I (solubility)): 527 µg/mL (≈ 1080 µM)
solubility at 7 days (cyclodextrin solution, aqueous with cosolvent or surfactant or cyclodextrin, RMβCD 50 mM, 37° C., 7 days, read-out: Concentration of Compound I (solubility)): 1530 µg/mL (≈ 3150 µM)
solubility at 7 days (cyclodextrin solution, aqueous with cosolvent or surfactant or cyclodextrin, RMβCD 75 mM, 37° C., 7 days, read-out: Concentration of Compound I (solubility)): 3010 µg/mL (≈ 6200 µM)
solubility at 7 days (cyclodextrin solution, aqueous with cosolvent or surfactant or cyclodextrin, RMβCD 100 mM, 37° C., 7 days, read-out: Concentration of Compound I (solubility)): 4680 µg/mL (≈ 9630 µM)
solubility at 7 days (cyclodextrin solution, aqueous with cosolvent or surfactant or cyclodextrin, RMβCD 150 mM, 37° C., 7 days, read-out: Concentration of Compound I (solubility)): 8320 µg/mL (≈ 17100 µM)
solubility at 7 days (cyclodextrin solution, aqueous with cosolvent or surfactant or cyclodextrin, RMβCD 200 mM, 37° C., 7 days, read-out: Concentration of Compound I (solubility)): 12000 µg/mL (≈ 24600 µM)
solubility at 7 days (cyclodextrin solution, aqueous with cosolvent or surfactant or cyclodextrin, concentrations above 8 mM βCD, read-out: Solubility of additional complex of 1:2 stoichiometry (Cpd. I: βCD)): 1.5 µg/mL (≈ 3.09 µM)
solubility at 7 days (cyclodextrin solution, aqueous with cosolvent or surfactant or cyclodextrin, in the presence of HPβCD, CD 2 mM, 37° C., 7 days, read-out: Concentration of Compound I (solubility)): 2.4 µg/mL
solubility at 7 days (cyclodextrin solution, aqueous with cosolvent or surfactant or cyclodextrin, in the presence of HPβCD, CD 4 mM, 37° C., 7 days, read-out: Concentration of Compound I (solubility)): 6.8 µg/mL
solubility at 7 days (cyclodextrin solution, aqueous with cosolvent or surfactant or cyclodextrin, in the presence of HPβCD, CD 8 mM, 37° C., 7 days, read-out: Concentration of Compound I (solubility)): 6.6 µg/mL
solubility at 7 days (cyclodextrin solution, aqueous with cosolvent or surfactant or cyclodextrin, in the presence of HPβCD, CD 10 mM, 37° C., 7 days, read-out: Concentration of Compound I (solubility)): 3.4 µg/mL
solubility at 7 days (cyclodextrin solution, aqueous with cosolvent or surfactant or cyclodextrin, in the presence of HPβCD, CD 12 mM, 37° C., 7 days, read-out: Concentration of Compound I (solubility)): 1.6 µg/mL
solubility at 7 days (cyclodextrin solution, aqueous with cosolvent or surfactant or cyclodextrin, in the presence of HPβCD, CD 16 mM, 37° C., 7 days, read-out: Concentration of Compound I (solubility)): 1.5 µg/mL
solubility at 7 days (cyclodextrin solution, aqueous with cosolvent or surfactant or cyclodextrin, γCD 10 mM, 37° C., 7 days, read-out: Concentration of Compound I (solubility)): 1.3 µg/mL (≈ 2.68 µM)
solubility at 7 days (cyclodextrin solution, aqueous with cosolvent or surfactant or cyclodextrin, γCD 100 mM, 37° C., 7 days, read-out: Concentration of Compound I (solubility)): 19.5 µg/mL (≈ 40.2 µM)
solubility at 7 days (cyclodextrin solution, aqueous with cosolvent or surfactant or cyclodextrin, γCD 200 mM, 37° C., 7 days, read-out: Concentration of Compound I (solubility)): 29.1 µg/mL (≈ 59.9 µM)
solubility at 7 days (water without cyclodextrin, water, without cyclodextrin, read-out: Solubility in water): < 0.6 µg/mL
solubility at 7 days (βCD solution, aqueous with cosolvent or surfactant or cyclodextrin, βCD, maximum concentration used 4 mM, read-out: Maximum solubility): 6.8 µg/mL (≈ 14 µM)
solubility at 7 days (γCD solution, aqueous with cosolvent or surfactant or cyclodextrin, γCD 25 mM, 37° C., 7 days, read-out: Concentration of Compound I (solubility)): 3.2 µg/mL (≈ 6.59 µM)
solubility at 7 days (γCD solution, aqueous with cosolvent or surfactant or cyclodextrin, γCD 50 mM, 37° C., 7 days, read-out: Concentration of Compound I (solubility)): 11.4 µg/mL (≈ 23.5 µM)
solubility at 7 days (γCD solution, aqueous with cosolvent or surfactant or cyclodextrin, γCD 75 mM, 37° C., 7 days, read-out: Concentration of Compound I (solubility)): 13.6 µg/mL (≈ 28 µM)
solubility at 7 days (γCD solution, aqueous with cosolvent or surfactant or cyclodextrin, γCD, maximum concentration used 200 mM, read-out: Maximum solubility): 29.1 µg/mL (≈ 59.9 µM)

— US8044035B2, “Pharmaceutical compositions of pyrimidine-2,4,6-triones” (priority 2004, dated 2011)
